Broadly, the IC50 is the concentration at which inhibition is half-maximal.

The structures appear in SMILES notation.

For this experiment, the target named is T1, Androgen receptor (Homo sapiens, UniProt P10275).
T1 sequence (P10275 whole entry): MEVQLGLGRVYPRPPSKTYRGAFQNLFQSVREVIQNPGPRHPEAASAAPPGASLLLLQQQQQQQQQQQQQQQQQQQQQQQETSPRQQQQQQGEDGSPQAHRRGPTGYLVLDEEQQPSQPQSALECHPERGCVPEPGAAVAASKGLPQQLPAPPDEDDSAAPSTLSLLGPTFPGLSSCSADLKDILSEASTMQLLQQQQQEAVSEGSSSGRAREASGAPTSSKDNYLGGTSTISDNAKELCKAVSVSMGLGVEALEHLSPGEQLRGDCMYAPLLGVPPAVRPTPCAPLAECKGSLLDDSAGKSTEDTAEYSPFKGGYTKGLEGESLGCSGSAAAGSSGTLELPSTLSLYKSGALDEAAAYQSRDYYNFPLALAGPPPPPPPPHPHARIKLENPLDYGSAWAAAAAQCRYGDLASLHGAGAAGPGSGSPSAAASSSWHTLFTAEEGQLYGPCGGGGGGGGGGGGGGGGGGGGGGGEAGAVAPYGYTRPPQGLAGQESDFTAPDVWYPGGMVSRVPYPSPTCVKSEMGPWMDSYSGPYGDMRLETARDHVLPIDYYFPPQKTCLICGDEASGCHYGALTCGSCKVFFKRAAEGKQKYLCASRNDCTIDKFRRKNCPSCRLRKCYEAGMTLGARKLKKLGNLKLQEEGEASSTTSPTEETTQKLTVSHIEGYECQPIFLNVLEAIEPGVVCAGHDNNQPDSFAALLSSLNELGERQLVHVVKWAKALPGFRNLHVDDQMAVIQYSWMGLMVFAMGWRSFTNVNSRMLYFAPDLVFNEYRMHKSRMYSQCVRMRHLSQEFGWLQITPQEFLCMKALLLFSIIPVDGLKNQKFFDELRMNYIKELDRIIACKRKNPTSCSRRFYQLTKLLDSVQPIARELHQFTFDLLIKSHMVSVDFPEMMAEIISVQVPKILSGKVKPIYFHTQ
In words: Modulation of AR in human LNCAP cells transfected with PSA reporter gene assessed as inhibition of R1881-induced PSA luciferase activity pretreated for 1 hr followed by R1881 addition and measured after 24 hrs by luciferase assay. Format: cell-based. A general note: A reporter such as luciferase makes a cellular process visible.

As for `CC(C)(c1ccc(OCc2ccnc(NS(C)(=O)=O)n2)cc1)c1cc(Cl)c(OCCCl)c(Cl)c1`, the IC50 is less than 500 nM.

As to `CC(C)(c1ccc(OCc2ccnc(NS(C)(=O)=O)n2)cc1)c1cc(F)c(OCCCl)c(Cl)c1`, the half-inhibitory concentration (IC50) worked out at 500 nM.

With `CC(C)(c1ccc(OCc2ncc(NS(C)(=O)=O)s2)cc1)c1cc(Cl)c(OCCCl)c(C#N)c1`, the IC50 was less than 500 nM.

As to `CC(C)(c1ccc(OCc2cnc(NS(C)(=O)=O)o2)cc1)c1cc(Cl)c(OCCCl)c(C#N)c1`, the IC50 is less than 500 nM.

Turning to `CC(C)(c1ccc(OCc2nc(NS(C)(=O)=O)cs2)cc1)c1cc(Cl)c(OCCCl)c(C#N)c1`, the 50% inhibitory concentration (IC50) is less than 500 nM.

For the compound `Cc1nc(NS(C)(=O)=O)nc(COc2ccc(C(C)(C)c3cc(Cl)c(OCCCl)c(C#N)c3)cc2)c1C`, the IC50 was less than 500 nM.

Regarding `CC(C)(c1ccc(OCc2cnc(Cl)o2)cc1)c1cc(Cl)c(OCCCl)c(C#N)c1`, the IC50 was less than 500 nM.

Turning to `CC(C)(c1ccc(OCc2cnc(NS(C)(=O)=O)nc2)cc1)c1cc(Cl)c(OCCCl)c(C#N)c1`, the IC50 was less than 500 nM.

Take `CC(C)S(=O)(=O)c1nc(COc2ccc(C(C)(C)c3cc(Cl)c(OCCCl)c(C#N)c3)cc2)co1`: the half-inhibitory concentration (IC50) is less than 500 nM.

With `CC(C)S(=O)(=O)Nc1nc(COc2ccc(C(C)(C)c3cc(Cl)c(OCCCl)c(C#N)c3)cc2)co1`, the IC50 is 500 nM.

Consider `CSc1nc(C)c(COc2ccc(C(C)(C)c3cc(Cl)c(OCCCl)c(C#N)c3)cc2)o1`, for which the IC50 is less than 500 nM.

For the compound `Cc1cnc(NS(C)(=O)=O)nc1COc1ccc(C(C)(C)c2cc(Cl)c(OCCCl)c(C#N)c2)cc1`, the IC50 is less than 500 nM.

These data come from ChEMBL document CHEMBL4725453, “Modulation of Androgen Receptor for Therapeutic Application in Cancer and Viral Infection” (ACS Med Chem Lett, 2020).
